# Measured values reported in patent US20040014768A1, “Chromenone derivatives and their use for treating diseases in conjunction with 5-hta1receptors and/or dopamine d2 receptors” (priority 2000, published 2004).
row,Compound,melting point [°C]
1,COc1cc2oc(=O)c(C)c(C)c2cc1OCCN1CCN(c2cccc3[nH]ccc23)CC1.Cl.Cl,231 to 237
2,"COc1cc2oc(=O)c(C)c(C)c2cc1OCCN1CCN(c2cccc3[nH]ccc23)CC1 [Example 3, 6-{2-[4-(1H-indol-4-yl)piperazin-1-yl]ethoxy}-7-methoxy-3,4-dimethylchromen-2-one]",201 to 202
3,"COc1cc2oc(=O)c(C)c(C)c2cc1OCCN1CCN(c2cccc3cccnc23)CC1 [Example 4, 7-methoxy-3,4-dimethyl-6-[2-(4-quinolin-8-ylpiperazin-1-yl)ethoxy]chromen-2-one]",164 to 165
4,"COc1cc2oc(=O)c(C)c(C)c2cc1OCCN1CCN(c2cccc3ccc(C)nc23)CC1 [Example 4, 7-methoxy-3,4-dimethyl-6-{2-[4-(2-methylquinolin-8-yl)piperazin-1-yl]-ethoxy}chromen-2-one]",168 to 170
5,"COc1cc2oc(=O)c(C)c(C)c2cc1OCCCN1CCN(c2cccc3[nH]ccc23)CC1 [Example 5, 6-{3-[4-(1H-indol-4-yl)piperazin-1-yl]propoxy}-7-methoxy-3,4-dimethyl-chromen-2-one]",193 to 195
6,"COc1cc2oc(=O)c(C)c(C)c2cc1OCCCN1CCN(c2cccc3cccnc23)CC1 [Example 5, 7-methoxy-3,4-dimethyl-6-[3-(4-quinolin-8-ylpiperazin-1-yl)propoxy]-chromen-2-one]",225 to 228
